Reference: patent US12428422B2, “Purine derivatives as SIK-3 inhibitors” (RHIZEN PHARMACEUTICALS AG, priority 2020, dated 2025)

Assays:
6 isoform of PI3K = 6 isoform of PI3K (Homo sapiens, UniProt O00329); assay: Activity against PI3K delta isoform (printed "6"); settings: independently synthesized compound
MDA-MB-231 cell lines = assay: MTT cell growth inhibition, combination with taxol, MDA-MB-231; type: cell-based; settings: combined with taxol, 72 hrs
Description: Assay 6: Combination of Compound M1 with Standard Agents in Different Cell Lines
Day 0 • The cells were pelleted and counted. • Cells were plated at desired density (100 μl/well) in complete media in a 96-well plate in triplicates. A column for Day “0” reading was also seeded. (18-20 hrs after initial plating and before addition of the inhibitors) • Plates were incubated at 37° C. and 5% CO2. Day 1 • 10 μl of MTT (5 mg/ml) were added to the column designated for Day “0”. It was mixed well and incubated at 37° C. and 5% CO2 for 3.5 h. Cells were pelleted down at 4000 rpm for 10 minutes. • Media was aspirated out and 150 μl of DMSO were added to the cells and mixed by pipetting to dissolve the crystals • The plate was read at A560 nm and A640 nm. Day 2 • A series of dilutions of the inhibitors were initially made in 100% DMSO and further diluted in growth medium. • Cells were treated with either single agent of DMSO, compound M1, taxol, and a combination of compound M1 and taxol (MDA-MB-231, MCF-7, ZR.75.1 and SK-OV-3). […] Crystals were dissolved by repeated pipetting. • The plate was read at A560 nm and A640 nm. […]
(§1) Reference absorbance values were subtracted from test absorbance values. Day 0 values were subtracted from final day absorbance values for determining cell growth. % Cell growth inhibitions were calculated.

MV-4-11 cell lines = assay: MTT cell growth inhibition, single agent or combination, MV-4-11; type: cell-based; settings: combined with azacytidine or ventoclax, 72 hrs
Description: Assay 4: Compound M1 as a Single Agent or in Combination with Azacytidine, or Venetoclax was Determined in the AML Lines: THP-1, U937, and MV-4-11.
Day 0 • The cells were pelleted and counted. • Cells were plated at desired density (100 μl/well) in complete media in a 96-well plate in triplicates. A column for Day “0” reading was also seeded (18-20 hrs after initial plating and before addition of the inhibitors) • Plates were incubated at 37° C. and 5% CO2. Day 1 • 10 μl of MTT (5 mg/ml) were added to the column designated for Day “0”. It was mixed well and incubated at 37° C. and 5% CO2 for 3.5 h. Cells were pelleted down at 4000 rpm for 10 minutes. • Media was aspirated out and 150 μl of DMSO were added to the cells and mixed by pipetting to dissolve the crystals • Plate was read at A560 nm and A640 nm. […] Crystals were dissolved by repeated pipetting. • The plate was read at A560 nm and A640 nm. […]
Reference absorbance values were subtracted from test absorbance values. Day 0 values were subtracted from final day absorbance values for determining cell growth. Percent cell growth inhibitions were calculated.

SK-OV-3 cell lines = assay: MTT cell growth inhibition, combination with talzoparib, SK-OV-3; type: cell-based; settings: combined with talzoparib, 72 hrs
Description: Assay 5: Combination of Compound M1 with Standard Agents in Different Cell Lines
Day 0 • The cells were pelleted and counted. • Cells were plated at desired density (100 μl/well) in complete media in a 96-well plate in triplicates. A column for Day “0” reading was also seeded. (18-20 hrs after initial plating and before addition of the inhibitors) • Plates were incubated at 37° C. and 5% CO2. Day 1 • 10 μl of MTT (5 mg/ml) were added to the column designated for Day “0”. It was mixed well and incubated at 37° C. and 5% CO2 for 3.5 h. Cells were pelleted down at 4000 rpm for 10 minutes. • Media was aspirated out and 150 μl of DMSO were added to the cells and mixed by pipetting to dissolve the crystals • The plate was read at A560 nm and A640 nm. Day 2 • A series of dilutions of the inhibitors were initially made in 100% DMSO and further diluted in growth medium. • Cells were treated with either single agent of DMSO, compound M1, talzoparib, and combination of compound M1 and talzoparib (OVCAr-3 and SK-OV-3). […]
The plate was read at A560 nm and A640 nm.
as §1

SIK3 (human) = SIK3 (human) (Homo sapiens, UniProt Q9Y2K2); assay: Enzymatic radiometric assay against human salt-inducible kinase-3 (SIK3); type: biochemical
Sequence of SIK3 (human) (Q9Y2K2 whole entry): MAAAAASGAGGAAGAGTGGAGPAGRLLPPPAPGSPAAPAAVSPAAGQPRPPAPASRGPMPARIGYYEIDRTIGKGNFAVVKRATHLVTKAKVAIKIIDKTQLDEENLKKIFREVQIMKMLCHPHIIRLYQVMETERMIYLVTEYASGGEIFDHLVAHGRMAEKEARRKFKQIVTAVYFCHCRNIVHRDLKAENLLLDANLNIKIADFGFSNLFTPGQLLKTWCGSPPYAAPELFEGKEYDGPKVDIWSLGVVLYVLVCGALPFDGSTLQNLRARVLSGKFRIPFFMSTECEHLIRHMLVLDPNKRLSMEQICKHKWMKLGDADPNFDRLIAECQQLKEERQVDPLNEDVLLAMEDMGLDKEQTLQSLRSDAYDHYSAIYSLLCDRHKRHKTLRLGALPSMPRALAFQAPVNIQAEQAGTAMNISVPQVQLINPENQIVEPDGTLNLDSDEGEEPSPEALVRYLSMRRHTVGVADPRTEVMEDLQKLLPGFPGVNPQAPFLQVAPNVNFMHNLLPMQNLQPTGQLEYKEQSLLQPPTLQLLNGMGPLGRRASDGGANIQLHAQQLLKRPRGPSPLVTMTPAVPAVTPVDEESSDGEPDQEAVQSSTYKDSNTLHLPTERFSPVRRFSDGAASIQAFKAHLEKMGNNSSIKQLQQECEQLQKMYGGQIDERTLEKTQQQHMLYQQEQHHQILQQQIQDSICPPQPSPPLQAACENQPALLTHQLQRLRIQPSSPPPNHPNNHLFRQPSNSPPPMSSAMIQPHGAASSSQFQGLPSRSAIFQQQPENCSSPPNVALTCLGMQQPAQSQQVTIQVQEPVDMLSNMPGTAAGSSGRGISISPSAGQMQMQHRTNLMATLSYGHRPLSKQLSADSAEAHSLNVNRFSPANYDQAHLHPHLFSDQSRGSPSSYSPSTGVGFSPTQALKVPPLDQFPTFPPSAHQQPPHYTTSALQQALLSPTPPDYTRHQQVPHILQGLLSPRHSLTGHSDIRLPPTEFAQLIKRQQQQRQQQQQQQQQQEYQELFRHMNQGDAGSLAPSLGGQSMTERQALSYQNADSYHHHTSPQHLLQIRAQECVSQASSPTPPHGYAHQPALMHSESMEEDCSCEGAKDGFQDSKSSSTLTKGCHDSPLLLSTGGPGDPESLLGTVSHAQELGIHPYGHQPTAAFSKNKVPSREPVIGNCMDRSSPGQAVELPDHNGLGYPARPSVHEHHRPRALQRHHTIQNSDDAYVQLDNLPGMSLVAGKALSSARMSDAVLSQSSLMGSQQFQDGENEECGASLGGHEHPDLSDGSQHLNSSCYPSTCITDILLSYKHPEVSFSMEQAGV
Description: Assay 1: Determination of IC50 of Compound M1 Against Human Salt-Inducible Kinase-3 (SIK3) Using an Enzymatic Radiometric Assay
• SIK3 (human) was incubated with 8 mM MOPS pH 7.0, 0.2 mM EDTA, 100 uM of the peptide […] (Substrate), 10 mM Mg Acetate and [gamma-33P-ATP] (specific activity and concentration as required) in the presence of Compound M1. • The reaction was initiated by the addition of the Mg/ATP mix. • After incubation for 40 minutes at room temperature, the reaction was stopped by the addition of phosphoric acid to a concentration of 0.5%. • 10 μL of the reaction mixture was then spotted onto a P30 filtermat and washed four times for 4 minutes in 0.425% phosphoric acid and once in methanol prior to drying and scintillation counting. • The IC50 value was calculated using GraphPad Prism.

Sequence of 6 isoform of PI3K (O00329 whole entry, canonical isoform): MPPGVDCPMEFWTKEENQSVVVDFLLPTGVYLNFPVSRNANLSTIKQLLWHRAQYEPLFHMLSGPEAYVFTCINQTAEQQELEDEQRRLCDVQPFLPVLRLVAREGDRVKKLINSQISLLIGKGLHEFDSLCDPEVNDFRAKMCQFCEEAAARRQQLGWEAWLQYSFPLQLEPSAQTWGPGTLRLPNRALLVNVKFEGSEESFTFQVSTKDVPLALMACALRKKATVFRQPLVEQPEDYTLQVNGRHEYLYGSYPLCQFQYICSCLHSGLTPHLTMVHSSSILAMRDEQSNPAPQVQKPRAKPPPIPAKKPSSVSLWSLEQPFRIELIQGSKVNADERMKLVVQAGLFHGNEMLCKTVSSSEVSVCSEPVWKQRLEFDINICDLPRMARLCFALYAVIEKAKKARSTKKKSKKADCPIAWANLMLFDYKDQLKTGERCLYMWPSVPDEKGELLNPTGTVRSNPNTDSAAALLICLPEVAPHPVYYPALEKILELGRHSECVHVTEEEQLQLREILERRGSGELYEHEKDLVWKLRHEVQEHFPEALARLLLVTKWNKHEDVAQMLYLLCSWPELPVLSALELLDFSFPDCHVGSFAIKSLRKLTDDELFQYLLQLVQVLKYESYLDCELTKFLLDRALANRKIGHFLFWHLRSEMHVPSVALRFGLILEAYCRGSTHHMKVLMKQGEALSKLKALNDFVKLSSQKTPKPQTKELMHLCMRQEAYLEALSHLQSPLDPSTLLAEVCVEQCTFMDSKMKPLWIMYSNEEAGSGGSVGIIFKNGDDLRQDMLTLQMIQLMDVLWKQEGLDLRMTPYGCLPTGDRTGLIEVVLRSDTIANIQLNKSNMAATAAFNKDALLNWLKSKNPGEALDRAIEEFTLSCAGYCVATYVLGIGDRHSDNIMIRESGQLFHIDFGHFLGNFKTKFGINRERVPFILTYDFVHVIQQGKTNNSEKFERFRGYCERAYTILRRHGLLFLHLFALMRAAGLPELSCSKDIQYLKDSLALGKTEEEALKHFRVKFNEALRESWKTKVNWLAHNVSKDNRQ
Sequence of 6 isoform of PI3K (P27986 whole entry partner, canonical isoform): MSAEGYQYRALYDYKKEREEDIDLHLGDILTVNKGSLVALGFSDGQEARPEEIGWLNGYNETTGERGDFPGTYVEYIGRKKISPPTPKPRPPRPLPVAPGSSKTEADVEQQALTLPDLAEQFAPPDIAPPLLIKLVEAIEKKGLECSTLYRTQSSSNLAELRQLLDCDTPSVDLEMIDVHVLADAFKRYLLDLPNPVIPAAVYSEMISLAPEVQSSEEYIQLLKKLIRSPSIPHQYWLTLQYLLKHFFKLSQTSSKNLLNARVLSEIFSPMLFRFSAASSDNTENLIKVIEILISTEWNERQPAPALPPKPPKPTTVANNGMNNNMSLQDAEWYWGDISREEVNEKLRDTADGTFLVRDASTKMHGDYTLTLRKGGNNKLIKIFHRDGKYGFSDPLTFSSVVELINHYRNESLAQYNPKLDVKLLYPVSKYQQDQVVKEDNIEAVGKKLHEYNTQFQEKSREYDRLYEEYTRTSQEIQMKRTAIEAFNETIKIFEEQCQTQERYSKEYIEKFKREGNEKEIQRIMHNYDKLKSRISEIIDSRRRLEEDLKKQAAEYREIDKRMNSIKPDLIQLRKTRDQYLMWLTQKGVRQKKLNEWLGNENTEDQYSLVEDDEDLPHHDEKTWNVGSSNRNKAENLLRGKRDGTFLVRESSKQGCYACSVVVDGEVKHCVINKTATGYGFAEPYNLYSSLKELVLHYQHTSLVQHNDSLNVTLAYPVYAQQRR

activity against the 6 isoform of PI3K (6 isoform of PI3K): inactive | activity against salt-inducible kinase 3 (SIK3) (SIK3 (human)): exhibit activity | SIK-3 inhibitory potency compared among compounds M, M1 and M2 (SIK3 (human); of the three compounds M, M1 and M2): most potent SIK-3 inhibitor
Structure (SMILES): CC[C@H](Nc1ncnc2[nH]c(O)nc12)c1oc2ccccc2c(=O)c1-c1cccc(F)c1 [Compound M1, (S)-3-(3-fluorophenyl)-2-(1-((8-hydroxy-9H-purin-6-yl)amino)propyl)-4H-chromen-4-one]
cell growth inhibition in combination (MDA-MB-231 cell lines): synergistic results | cell growth inhibition in combination (MV-4-11 cell lines): synergistic activity | cell growth inhibition in combination (SK-OV-3 cell lines): synergistic results
